Measured values reported in US10100077B2, “6-aryl-9-glycosylpurines and use thereof” (UNIVERZITA PALACKEHO V OLOMOUCI, priority 2014, dated 2018).

Tests used:
[1] = tested on: skin fibroblasts BJ and keratinocytes HaCaT; assay: MTT in vitro cytotoxicity test for skin cells; type: cell-based; details: Homo sapiens; MTT, 72 hour treatment, BJ and HaCaT, maximal concentration 50 microM
Method: MTT assay is a standard test of toxicity based on photometric measurement of the ability of metabolically active cells to reduce MTT (3-(4,5-dimethylthiazol-2-yl)-2,5-diphenyltetrazolium bromide). Using the assay, the effects of 72 hour treatments with several concentrations of the compounds (sixfold dilution, maximal concentration=50 microM) on viability of skin fibroblasts BJ and keratinocytes HaCaT were evaluated. About 5,000 cells were seeded per well of a 96-well plate 24 hours before the treatment. DMSO vehiculum was used as a negative control. After 72 hour treatment, new medium with MTT (Sigma, M2128) was added to a final concentration of 0.5 mg/ml. After 3 hours, medium was removed and resulting formazan in the cells was dissolved in DMSO. The absorbance was measured at 570 nm (640 nm reference wavelength). The IC50 values were calculated from the dose-response curves. 6-Benzylaminopurine riboside and 6-furfurylaminopurine riboside were used as positive controls they were toxic in the MTT test.

[2] = tested on: skin fibroblasts BJ and keratinocytes HaCaT; assay: SRB in vitro toxicity test; type: cell-based; details: Homo sapiens, 72 hour treatment, maximal concentration 50 microM
Method: SRB (sulforhodamine B) assay is a standard toxicity test based on a photometric measurement of the cellular protein content after the staining with sulphorhodamine B. Using the assay, the effects of 72 hour treatments with several concentrations of the compounds (sixfold dilution, maximal concentration=50 microM) on viability of skin fibroblasts BJ and keratinocytes HaCaT were evaluated. About 5,000 cells were seeded per well of a 96-well plate 24 hours before the treatment. DMSO vehiculum was used as a negative non-toxic control. 6-benzylaminopurine riboside a 6-furfurylaminopurin riboside were used as positive toxic controls. After three days the medium was removed and the cells fixed with 10% (wt/vol) trichloroacetic acid. After the extensive washing in distilled water, 0.4% (wt/vol) solution of SRB in acetic acid was added and the fixed cells were stained for 30 minutes. The unbound stain was washed away by distilled water and the bound SRB was solubilized in unbuffered 10 mM Tris base. Absorbance was measured at 564 nm. IC50 values were calculated from dose-response curves.

BJ skin fibroblasts = assay: One-step growth curve; type: cell-based; details: 12.5 to 100 μM, counted on 7th and 14th day
Method: The experiments were performed with BJ skin fibroblasts in 24-well tissue culture plates. About 10,000 cells in culture medium comprising DMEM with 10% FBS were seeded into the individual wells. The cells were allowed to attach for 24 hourse. The test compound was added to final concentrations in a range from 12.5 to 100 μM. DMSO vehiculum was also tested. In order to control for variability, two plate columns (A, D) were treated with DMSO vehiculum. The culture medium with the test chemicals or DMSO vehiculum was changed twice a week. Following trypsinization, the numbers of cells in 4 wells for each concentration were counted using Coulter counter on 7th and 14th day.

[3] = Calcein AM cytotoxicity assay, MCF-7; type: cell-based; details: human, MCF-7 breast cancer cells
Text: (§1) One of the parameters used as the base for cytotoxic analysis is metabolic activity of viable cells, such as microtiter assay, which uses the Calcein AM, is now widely used to quantitate cell proliferation and cytotoxicity. The quantity of reduced Calcein AM corresponds to the number of viable cells in culture. The cell lines of breast cancer (MCF-7), mousse fibroblasts (NIH3T3), human erythromleukemia (K562) were used for routine screening of cytotoxicity of the compounds. The cells were maintened in Nunc/Corning 80 cm^2 plastic bottles and grown in media for cell culture (DMEM containing 5 g/l of glucose, 2 mM of glutamin, 100 U/ml of penicilin, […] of streptomycin, 10% of fetal bovine serum and sodium hydrogencarbonate). Cell suspensions were diluted according to cell types and according to expected final cell density (10^4 of cells per well according to characteristics of cell growth), pipetted 80 μl of cell suspension on 96-well microtiter plates. Innoculates were stabilized by 24 hrs preincubation at 37° C. in CO2. Particular concentrations of tested compounds were added in time zero as 20 μl aliquotto wells of microtiter plates. Usually, the compounds were diluted into six concentrations in four-fold dilution series. In routine testing, the highest well concentration was 166.7 μM, of change dependent on the substance. All drug concentrations were examined in duplicates. The incubation of cells with tested derivatives lasted 72 hrs at 37° C., 100% humidity and in the atmosphere of CO2. At the end of the incubation period, the cells were tested and analysed according to the addition of Calcein AM (Molecular probes) solution and the incubation lasted for next 1 hour. Fluorescence (FD) was measured using Labsystem FIA reader Fluorskan Ascent (Microsystems). The survival of tumor cells (The tumor cell survival-TCS) was counted according to equation: […]=(FDwell with derivative/FDcontrol well)×100%. The value of GI50, that is equal to the concentration of compound at which 50% of tumour cells are terminated. To evaluate the antitumor activity was tested toxicity of new derivatives on panel of cell lines of different histogenetic and species origin (Tab. 7, G150 concentration given in μM). […] Effective derivatives killed tumor cells in concentrations close to 0.1 to 50. None of the newly prepared compounds only reached the value.

[4] = Calcein AM cytotoxicity assay, K562; type: cell-based, human; details: human, K562 erythroleukemia cells
Text: as §1

[5] = Calcein AM cytotoxicity assay, NIH3T3; type: cell-based, mouse; details: mouse, NIH3T3 fibroblasts
Text: as §1

[6] = tested on: Vaccinia virus and Herpes simplex virus; details: cited from earlier work

Compound: OC[C@H]1O[C@@H](n2cnc3c(NCc4ccccc4)ncnc32)[C@@H](O)[C@@H]1O [6-benzylamino-9-β-D-arabinofuranosylpurine]
- IC50 [1]: > 50 µM
- IC50 [2]: > 50 µM
- influence on cell viability (cell numbers, growth curve) (BJ skin fibroblasts): did not have a negative influence on cell viability
- GI50 at 72 h [3]: > 100 µM
- GI50 at 72 h [4]: > 100 µM
- GI50 at 72 h [5]: > 100 µM
- activity in killing Vaccinia virus and Herpes simplex virus [6]: No effect
